Patent US9695155B2, “Herbicidal substituted pyrimidinyloxy benzene compounds” (E. I. DU PONT DE NEMOURS AND COMPANY, priority 2013, dated 2017)

Columns and labels:
large (Lg) crabgrass [1] = assay: Test A preemergence; assay type: in vivo, Digitaria sanguinalis; details: for Crabgrass, Large plant response rating: 500 g ai/ha
Outline: (§1)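 Greenhouse pot test, loam/sand soil. Formulation: non-phytotoxic solvent mix plus surfactant. Pre: directed spray onto soil after sowing. Post: plants at 1–2 leaf, 2–10 cm. Rated visually vs untreated controls at ~10 d, 0 (no effect) to 100 (complete control).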

pigweed [2] = assay: Test A postemergence; assay type: in vivo, Amaranthus retroflexus
Outline: as §1

Heteranthera limosa = assay: Test B flooded paddy test; assay type: in vivo; details: Flood, 250 g ai/ha; 0 to 100 scale where 0 is no effect and 100 is complete control
Outline: (§2)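 Seedlings are raised to two leaves, flooded to a depth of 3 cm and dosed by adding the compound to the floodwater. Water level is kept constant, and plants are scored visually versus controls 13–15 days later (0 = no effect, 100 = complete control).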

morningglory [3] = assay: Test A preemergence; assay type: in vivo, Ipomoea spp.; details: for Morningglory plant response rating: 500 g ai/ha
Outline: as §1

large (Lg) crabgrass [4] = assay: Test A postemergence; assay type: in vivo, Digitaria sanguinalis
Outline: as §1

velvetleaf [5] = assay: Test A preemergence; assay type: in vivo, Abutilon theophrasti; details: for Velvetleaf plant response rating: 500 g ai/ha
Outline: as §1

wheat [6] = assay: Test A preemergence; assay type: in vivo, Triticum aestivum; details: for Wheat plant response rating: 500 g ai/ha
Outline: as §1

corn [7] = assay: Test A preemergence; assay type: in vivo, Zea mays; details: for Corn plant response rating: 500 g ai/ha
Outline: as §1

barnyardgrass [8] = assay: Test B flooded paddy test; assay type: in vivo, Echinochloa crus-galli; details: Flood, 250 g ai/ha; 0 to 100 scale where 0 is no effect and 100 is complete control
Outline: as §2

sedge, umbrella = assay: Test B flooded paddy test; assay type: in vivo, Cyperus difformis; details: Flood, 250 g ai/ha; 0 to 100 scale where 0 is no effect and 100 is complete control
Outline: as §2

morningglory [9] = assay: Test A postemergence; assay type: in vivo, Ipomoea spp.
Outline: as §1

barnyardgrass [10] = assay: Test A preemergence; assay type: in vivo, Echinochloa crus-galli; details: for Barnyardgrass plant response rating: 500 g ai/ha
Outline: as §1

wheat [11] = assay: Test A postemergence; assay type: in vivo, Triticum aestivum
Outline: as §1

velvetleaf [12] = assay: Test A postemergence; assay type: in vivo, Abutilon theophrasti
Outline: as §1

giant foxtail [13] = assay: Test A postemergence; assay type: in vivo, Setaria faberii
Outline: as §1

rice = assay: Test B flooded paddy test; assay type: in vivo, Oryza sativa; details: Flood, 250 g ai/ha; 0 to 100 scale where 0 is no effect and 100 is complete control
Outline: as §2

corn [14] = assay: Test A postemergence; assay type: in vivo, Zea mays
Outline: as §1

barnyardgrass [15] = assay: Test A postemergence; assay type: in vivo, Echinochloa crus-galli
Outline: as §1

pigweed [16] = assay: Test A preemergence; assay type: in vivo, Amaranthus retroflexus; details: for Pigweed plant response rating: 500 g ai/ha
Outline: as §1

giant foxtail [17] = assay: Test A preemergence; assay type: in vivo, Setaria faberii; details: for Foxtail, Giant plant response rating: 500 g ai/ha
Outline: as §1

[18] = 125 g ai/ha, 0 to 100 scale where 0 is no effect and 100 is complete control
[19] = 0 to 100 scale, 0 no effect, 100 complete control, approx. 10 days
[20] = 500 g ai/ha, 0 to 100 scale, 0 no effect, 100 complete control
[21] = 0 to 100 scale where 0 is no effect and 100 is complete control
[22] = 500 g ai/ha, 0 to 100 scale where 0 is no effect and 100 is complete control

CC(C)(C)c1ccn(-c2ccccc2Oc2ncc(Br)cn2)n1 [Compound 30]
Plant response rating, Crabgrass, Large (large (Lg) crabgrass [1]; [18]): 40 | Crabgrass, Large plant response rating (large (Lg) crabgrass [1]; [19]): 60 | Plant response rating, Pigweed (pigweed [2]; [18]): 0 | Plant response rating, Pigweed (pigweed [2]; [20]): 30 | Plant response rating, Ducksalad (Heteranthera limosa): 0 | Plant response rating, Morningglory (morningglory [3]; [18]): 0 | Morningglory plant response rating (morningglory [3]; [19]): 0 | Plant response rating, Crabgrass, Large (large (Lg) crabgrass [4]; [18]): 30 | Plant response rating, Crabgrass, Large (large (Lg) crabgrass [4]; [20]): 40 | Plant response rating, Velvetleaf (velvetleaf [5]; [18]): 10 | Velvetleaf plant response rating (velvetleaf [5]; [19]): 40 | Plant response rating, Wheat (wheat [6]; [18]): 0 | Wheat plant response rating (wheat [6]; [19]): 0 | Plant response rating, Corn (corn [7]; [18]): 0 | Corn plant response rating (corn [7]; [19]): 0 | Plant response rating, Barnyardgrass (barnyardgrass [8]): 0 | Plant response rating, Sedge, Umbrella (sedge, umbrella): 0 | Plant response rating, Morningglory (morningglory [9]; [18]): 0 | Plant response rating, Morningglory (morningglory [9]; [20]): 0 | Plant response rating, Barnyardgrass (barnyardgrass [10]; [18]): 0 | Barnyardgrass plant response rating (barnyardgrass [10]; [19]): 10 | Plant response rating, Wheat (wheat [11]; [18]): 0 | Plant response rating, Wheat (wheat [11]; [20]): 0 | Plant response rating, Velvetleaf (velvetleaf [12]; [18]): 20 | Plant response rating, Velvetleaf (velvetleaf [12]; [20]): 30 | Plant response rating, Foxtail, Giant (giant foxtail [13]; [18]): 10 | Plant response rating, Foxtail, Giant (giant foxtail [13]; [20]): 10 | Plant response rating, Rice (rice): 0 | Plant response rating, Corn (corn [14]; [18]): 0 | Plant response rating, Corn (corn [14]; [20]): 0 | Plant response rating, Barnyardgrass (barnyardgrass [15]; [18]): 10 | Plant response rating, Barnyardgrass (barnyardgrass [15]; [20]): 10 | Plant response rating, Pigweed (pigweed [16]; [18]): 0 | Pigweed plant response rating (pigweed [16]; [19]): 0 | Plant response rating, Foxtail, Giant (giant foxtail [17]; [18]): 0 | Foxtail, Giant plant response rating (giant foxtail [17]; [19]): 30

O=Cc1cccc(Oc2ncc(Cl)cn2)c1-n1cc(Cl)cn1 [Compound 205]
Crabgrass, Large plant response rating (0 to 100 scale) (large (Lg) crabgrass [1]; 125 g ai/ha): 0 | Crabgrass, Large plant response rating (large (Lg) crabgrass [1]; [21]): 0 | Pigweed plant response rating (pigweed [2]; [18]): 0 | Plant response rating, Pigweed (pigweed [2]; [22]): 0 | Plant response rating, Ducksalad (Heteranthera limosa): 0 | Morningglory plant response rating (0 to 100 scale) (morningglory [3]; 125 g ai/ha): 0 | Morningglory plant response rating (morningglory [3]; [21]): 0 | Crabgrass, Large plant response rating (large (Lg) crabgrass [4]; [18]): 0 | Plant response rating, Crabgrass, Large (large (Lg) crabgrass [4]; [22]): 0 | Velvetleaf plant response rating (0 to 100 scale) (velvetleaf [5]; 125 g ai/ha): 0 | Velvetleaf plant response rating (velvetleaf [5]; [21]): 10 | Wheat plant response rating (0 to 100 scale) (wheat [6]; 125 g ai/ha): 0 | Wheat plant response rating (wheat [6]; [21]): 0 | Corn plant response rating (0 to 100 scale) (corn [7]; 125 g ai/ha): 0 | Corn plant response rating (corn [7]; [21]): 0 | Plant response rating, Barnyardgrass (barnyardgrass [8]): 0 | Plant response rating, Sedge, Umbrella (sedge, umbrella): 0 | Morningglory plant response rating (morningglory [9]; [18]): 0 | Plant response rating, Morningglory (morningglory [9]; [22]): 0 | Barnyardgrass plant response rating (0 to 100 scale, 0 is no effect, 100 is complete control) (barnyardgrass [10]; 125 g ai/ha): 0 | Barnyardgrass plant response rating (barnyardgrass [10]; [21]): 0 | Wheat plant response rating (wheat [11]; [18]): 0 | Plant response rating, Wheat (wheat [11]; [22]): 0 | Velvetleaf plant response rating (velvetleaf [12]; [18]): 10 | Plant response rating, Velvetleaf (velvetleaf [12]; [22]): 20 | Foxtail, Giant plant response rating (giant foxtail [13]; [18]): 0 | Plant response rating, Foxtail, Giant (giant foxtail [13]; [22]): 0 | Plant response rating, Rice (rice): 0 | Corn plant response rating (corn [14]; [18]): 0 | Plant response rating, Corn (corn [14]; [22]): 0 | Barnyardgrass plant response rating (barnyardgrass [15]; [18]): 0 | Plant response rating, Barnyardgrass (barnyardgrass [15]; [22]): 0 | Pigweed plant response rating (0 to 100 scale) (pigweed [16]; 125 g ai/ha): 0 | Pigweed plant response rating (pigweed [16]; [21]): 10 | Foxtail, Giant plant response rating (0 to 100 scale) (giant foxtail [17]; 125 g ai/ha): 0 | Foxtail, Giant plant response rating (giant foxtail [17]; [21]): 0
